US7897772B2, “Acid addition salt of irinotecan” (priority 2004, dated 2011)
Counter-ions that a name gives are not always drawn.

Legend:
[1] = Dissolution of irinotecan acid addition salts in water at 100 mg/mL at room temperature and state of the solution after 6 days of stirring (Example 1); format: physicochemical; settings: for State of the Solution after Day 6 (footnote symbol: salt not dissolved): 100 mg/mL in water at room temperature; for Dissolution of the salt in water at room temperature: salt content adjusted to 100 mg/mL, no heating
Procedure: To an aqueous suspension of irinotecan (1-ethyl-10-[4-(1-piperidino)-1-piperidino]carbonyloxycamptothecin) produced through the method disclosed in Patent Document 1, each acid species was added, to thereby produce a corresponding irinotecan acid addition salt. The irinotecan acid addition salt content was adjusted to 100 mg/mL. […] Each of the aqueous solutions employing sulfuric acid, phosphoric acid methanesulfonic acid, citric acid, maleic acid, and succinic acid, respectively, was filtered by a membrane filter, and the filtrate was stirred at room temperature (25° C.). After continuous stirring for 6 days, the aqueous solution was visually observed so as to evaluate the state of the solution.

[2] = Dissolution of 100 mg/mL salt suspensions on heating and later crystal deposition at 25° C. (Example 2); format: physicochemical; settings: for Dissolution on heating: 100 mg/mL
Procedure: The thus-produced irinotecan nitric acid addition salt solution was stirred at 25° C. After stirring of the solution for about 42 hours, crystals of the irinotecan nitric acid addition salt were deposited.

Question: What does the source list for Br.CCc1c2c(nc3ccc(OC(=O)N4CCC(N5CCCCC5)CC4)cc13)-c1cc3c(c(=O)n1C2)COC(=O)C3(O)CC (stereo not shown) [Irinotecan hydrobromic acid addition salt, reference compound]?
Answer: State of the Solution after Day 6 (footnote symbol: salt not dissolved) [1]: *1; Dissolution of the salt in water at room temperature [1]: not dissolved in water at room temperature; Dissolution on heating ([2]; stirred at 100° C. for 30 minutes): maintained undissolved

Question: For CCc1c2c(nc3ccc(OC(=O)N4CCC(N5CCCCC5)CC4)cc13)-c1cc3c(c(=O)n1C2)COC(=O)[C@]3(O)CC [Irinotecan nitric acid addition salt, irinotecan nitric acid salt], which “State of the Solution after Day 6 (footnote symbol: salt not dissolved)” value [1] is on record?
Answer: *1

Question: What about the “Dissolution of the salt in water at room temperature” value ([1]; listed as nitric acid) of the same compound?
Answer: not dissolved in water at room temperature

Question: And the “Stirring time after which crystals were deposited” value ([2]; 100 mg/mL solution dissolved by heating, then stirred at 25° C.)?
Answer: about 42 hours

Question: And the Dissolution on heating ([2]; 70° C. under stirring for three minutes)?
Answer: completely dissolved
